Data as given in patent US20250041309A1 (ZHENAO JINYINHUA PHARMACEUTICAL, priority 2021, published 2025).
Where a name gives a salt, the structure may show the parent alone.

Assays:
[1] = Saturation solubility of Aildenafil salts in water at room temperature; format: physicochemical
[2] = pH measurement of Aildenafil salts dissolved in water; format: physicochemical; settings: for 2 mg/ml pH value: 2 mg/ml in water; for 10 mg/ml pH value: 10 mg/ml in water
[3] = Sterilization stability test of aqueous solutions (121° C., 30 minutes, HPLC relevant substances); settings: 0.5 mg/ml aqueous solution; for Conclusion (sterilization stability) / Relevant substances after sterilization: sterilized at 121° C. for 30 minutes
Experimental: They were sterilized in a 121° C. sterilizer for 30 minutes, and sampled before and after sterilization. The relevant substances were measured according to the following method:
Relevant substances: taking the samples and dissolving it in the mobile phase to prepare a solution containing 0.5 mg per 1 ml, which was used as the test solution; using octadecylsilane bonded silica gel as the filler, phosphate buffer (800 ml of water, 7 ml of triethylamine added, pH adjusted to 3.0 with phosphoric acid, diluted to 1000 ml with water)-methanol acetonitrile (58:25:17) as the mobile phase, with a detection wavelength of 290 nm.

[4] = tested on: ischemic stroke model rats; assay: Neurological function (behavioral) score, ischemic stroke model rats, intravenous administration (Example 22); format: in vivo, SD rats; design: scale not given here; settings: 10 mg/kg iv qd 7 d, x ± s, n = 10
From the text: (§1) On the day of the experiment, the rat was anesthetized with isoflurane gas and placed in a supine position for fixation. The skin was cut along the midline of the neck to expose the right common carotid artery. The nerves and fascia around the blood vessels from the common carotid artery bifurcation to the base of the skull were carefully removed, and the external and internal carotid arteries were separated sequentially. The MCAO suture was inserted from the free end of the external carotid artery, and the nylon suture was introduced into the internal carotid artery from the distal end of the external carotid artery. It was inserted into the Willis ring of the middle cerebral artery to effectively block the middle cerebral artery. The length of the inserted suture was 18-20 mm away from the bifurcation of the common carotid artery. Then the free end of the external carotid artery was ligated along with the endovascular suture to prevent bleeding. […] Animals were kept in cages. After 2 hours of embolization, then reperfusion, according to the scoring criteria in the attached table, the degree of neurological damage in the animals was scored using a blind method. Those with significant neurological deficits (>8 points) were considered successful in modeling. • ? Grouping and administration The animals successfully modeled were randomly divided into three groups based on their scores, namely the model control group, compound 1 AD group ([…] citrate group) 10 mg/kg, and compound 2 XD group (Sildenafil citrate group) 10 mg/kg, with 10 animals in each group. […] The endpoint of the experiment was 14 days after administration, and the dosage is detailed in the table below. This experiment was administered intravenously with a dosage of 10 mg/kg and a volume of 5 mL/kg, once per day for consecutive 7 days. Score before treatment, 3 days after treatment, 7 days after treatment, and 14 days after treatment.

[5] = tested on: ischemic stroke model rats; assay: Cerebral infarction range (TTC), ischemic stroke model rats, intravenous administration (Example 22); format: in vivo, SD rats; settings: 10 mg/kg iv qd 7 d
From the text: as §1, with “cages.” for “cages. After 2 hours of embolization, then reperfusion, according to the scoring criteria in the attached table, the degree of neurological damage in the animals was scored using a blind method. Those with significant neurological deficits (>8 points) were considered successful in modeling. • ? Grouping and administration”, “At the end of the experiment, the brain tissue of the rats was collected by bloodletting” for “Score before treatment, 3 days after treatment, 7 days after treatment,”, “frozen in a -20° C. freezer, then are sliced with a thickness of 2 mm per slice. The brain tissue slices were placed in a 2% red tetrazolium (TTC) solution and incubated at 37° C. for 5 minutes. The infarcted tissue appeared white, while the non-infarcted tissue appeared red.” for “14 days after treatment.”

MCAO rats [6] = assay: Balance beam test in MCAO rats, injection of Aildenafil phosphate (Example 24); format: in vivo; settings: x ± sD, n = 7
Experimental: (§2) • ? Animal selection: healthy SD rats were used as experimental animals. In order to eliminate the impact of individual animal variations on the results, 10 rats were used in each group. […] After 2 hours of cerebral ischemia-reperfusion, the drug was immediately injected into the tail vein for consecutive 7 days.
(§3) On the day of the experiment, the rat was anesthetized with isoflurane gas and fixed in a supine position. The skin was cut along the midline of the neck to expose the right arteriae carotis communis. The nerves and fascia around the blood vessels from the common carotid artery bifurcation to the base of the skull were carefully removed, and the external and internal carotid arteries were separated sequentially. A MCAO suture (250-280 g) was inserted from the free end of the external carotid artery, and the nylon suture was introduced into the internal carotid artery from the distal end of the external carotid artery. It was inserted into the middle cerebral artery in the Willis ring to effectively block the middle cerebral artery. The length of the inserted suture was 18-20 mm away from the bifurcation of the common carotid artery. Then the free end of the external carotid artery was ligated along with intracavity suture to prevent bleeding. The subcutaneous fascia and skin were sutured layer by layer, and penicillin was locally added dropwise to prevent infection. The Sham group only isolated the internal carotid artery. 2 hours after the start of MCAO, the suture was carefully removed from the lumen of the internal carotid artery to allow for reperfusion of the internal carotid artery. Animals were kept in cages. • ? Y Grouping and administration
(§4) The rats successfully modeled with a neurological function score of 8-12 were randomly divided into four groups based on the score: model control group, low-dose 2.5 mg/kg group of test drug, medium dose 5 mg/kg group of test drug, and high-dose 10 mg/kg group of test drug, with 7 rats in each group. […] Immediately after cerebral ischemia-reperfusion for 2 hours, the drug was administered via tail vein injection for consecutive 7 days. The endpoint of the experiment is 14 days after the first administration. Please see Table 7 for details.
(§5) Balance beam and forelimb placement tests were performed after 7 and 14 days administration, respectively.

MCAO rats [7] = assay: Forelimb placement test in MCAO rats, injection of Aildenafil phosphate (Example 24); format: in vivo; settings: x ± sD, n = 7
Experimental: as §2, §3, §4, §5

MCAO rats [8] = assay: Cerebral infarction range (TTC) in MCAO rats, injection of Aildenafil phosphate (Example 24); format: in vivo, SD rats; settings: 14 days; for Improvement rate % of cerebral infarction range: versus model control group; for Infarct size (%): x ± sD, n = 7
Experimental: as §2, §3, §4
After 14 days of medication, rats were anesthetized with isoflurane gas to collect blood and euthanized by cervical vertebrae dislocation. The brain tissue was taken and placed in a −20° C. freezer for freezing, and was sliced from front to back, each slice has a thickness of 2 mm. Brain tissue slices were incubated in a 2% red tetrazolium (TTC) solution at 37° C. for 5 minutes. […] Image J software was used to measure the area of cerebral infarction and the percentage of infarct area to the total brain area was calculated.

MCAO rats [9] = assay: Neurological function (behavioral) score in MCAO rats, oral administration (Example 23); format: in vivo, SD rats; settings: gavage 8 mg/kg twice a day; after 3, 7 and 14 days administration
Experimental: (§6) Administration route: gavage administration;
(§7) Dosage: 8 mg/kg body weight, twice a day;
(§8) Administration time: gavage administration twice a day in the morning and evening (administered immediately after modeling).
(§9) A rat model of middle cerebral artery ischemia/reperfusion (MCAO/R) was created using suture-occluded method.
After 2 hours of embolization, then reperfusion, according to the scoring criteria in the attached table, the degree of neurological damage in the animals was scored using a blind method. Those with significant neurological deficits (>8 points) were considered successful in modeling.
(§10) The successfully modeled rats were randomly divided into 4 groups based on their scores, with an average of 20 rats in each group.
Neurological function score: evaluation was conducted before treatment, 3 days, 7 days, and 14 days after treatment.

MCAO rats [10] = assay: Cerebral infarction range (TTC) in MCAO rats, oral administration (Example 23); format: in vivo, SD rats; settings: gavage 8 mg/kg*2, after 14 days
Experimental: as §6, §7, §8, §9, §10
At the end of the experiment, the brain tissue of the rats was collected by bloodletting and frozen in a −20° C. freezer, and then is sliced into a thickness of 2 mm per slice. The brain tissue slices were placed in a 2% red tetrazolium (TTC) solution and incubated at 37° C. for 5 minutes. The infarcted tissue appeared white, while the non-infarcted tissue appeared red. Image J software was used to measure the area of cerebral infarction and the percentage of infarct area to the total brain area was calculated.

[11] = Physical and chemical properties of the experimental drugs (Example 23)
[12] = 5 mg/kg iv qd 7 d (medium dose)

Question: For CCCc1nn(C)c2c(=O)[nH]c(-c3cc(S(=O)(=O)N4C[C@@H](C)N[C@@H](C)C4)ccc3OCC)nc12.O=C(O)C(O)C(O)C(=O)O [Aildenafil L-tartrate, L-tartrate (1:1) of 1-[4-ethoxy-3-[5-(6,7-dihydro-1-methyl-7-oxy-3-n-propyl-1H-pyrazolo[4,3-d]pyrimidine)]benzenesulfonyl]-cis-3,5-dimethylpiperazine], which “time to dissolve to be clear in water by hand shaking” value [1] is on record?
Answer: Its value is 15 s.

Question: And the solubility ([1]; thermodynamic from solid, room temperature, read-out: Saturated Solubility in water at room temperature)?
Answer: The solubility was ~50 mg/mL.

Question: And the “2 mg/ml pH value” [2]?
Answer: The value was 3.59.

Question: And the “10 mg/ml pH value” [2]?
Answer: Its value is 3.56.

Question: And the “Relevant substances before sterilization” value [3]?
Answer: Its value is “None”.

Question: And the “Conclusion (sterilization stability)” value [3]?
Answer: Its value is “No changes, stable”.

Question: And the “Relevant substances after sterilization” value [3]?
Answer: Its value is “no impurities were found and None”.

Question: What about the “Relevant substances after sterilization” value ([3]; listed as L-tartrate) of the same compound?
Answer: Its value is “no impurities are produced”.

Question: What does the source list for CCCc1nn(C)c2c(=O)[nH]c(-c3cc(S(=O)(=O)N4C[C@@H](C)N[C@@H](C)C4)ccc3OCC)nc12 [Aildenafil citrate]?
Answer: 2 mg/ml pH value [2]: 4.11; 10 mg/ml pH value [2]: Insoluble; behavioral score, 3 days after medication ([4]; 3 days after medication): 6.9 ± 1.5; behavioral score, 7 days after medication ([4]; 7 days after medication): 5.5 ± 1.1; behavioral score, 14 days after medication ([4]; 14 days after medication): 4.3 ± 1.3; behavioral score, Before medication ([4]; before medication): 9.7 ± 0.5; Total cerebral infarction % ([5]; 14 days after administration, x ± s, n = 10): 17.6 ± 7.7 %; Improvement rate % of cerebral infarction range ([5]; 14 days, versus model control group): 29.6%; Relevant substances before sterilization [3]: None; Conclusion (sterilization stability) [3]: No changes, stable; Relevant substances after sterilization [3]: no impurities were found and None

Question: Which “time to dissolve to be clear in water by hand shaking” value [1] does the source give for CCCc1nn(C)c2c(=O)[nH]c(-c3cc(S(=O)(=O)N4C[C@@H](C)N[C@@H](C)C4)ccc3OCC)nc12 [Aildenafil phosphate] here?
Answer: The value was 15 s.

Question: And the “2 mg/ml pH value” [2]?
Answer: Its value is 5.47.

Question: And the “10 mg/ml pH value” [2]?
Answer: The value was 5.38.

Question: And the “balance beam, 7 days after medication” value (MCAO rats [6]; [12])?
Answer: The value was 2.14 ± 0.9 min.

Question: And the “balance beam, 14 days after medication” value (MCAO rats [6]; [12])?
Answer: Its value is 4.29 ± 1.38 min.

Question: And the “balance beam, 7 days after medication” value (MCAO rats [6]; 10 mg/kg iv qd 7 d (high dose))?
Answer: The value was 2.71 ± 1.25 min.

Question: What about the “balance beam, 14 days after medication” value (MCAO rats [6]; 10 mg/kg iv qd 7 d (high dose)) of the same compound?
Answer: Its value is 4.29 ± 1.60 min.

Question: And the “Forelimb left (%), 7 days after medication” value (MCAO rats [7]; 5 mg/kg iv qd 7 d)?
Answer: Its value is 18.57 ± 18.64%.

Question: And the “Forelimb left (%), 14 days after medication” value (MCAO rats [7]; 5 mg/kg iv qd 7 d)?
Answer: Its value is 37.14 ± 30.39 %.

Question: What about the “Forelimb right (%), 7 days after medication” value (MCAO rats [7]; 5 mg/kg iv qd 7 d) of the same compound?
Answer: The value was 100 ± 0%.

Question: And the “Forelimb right (%), 14 days after medication” value (MCAO rats [7]; 5 mg/kg iv qd 7 d)?
Answer: The value was 100 ± 0%.

Question: What about the “Forelimb left (%), 7 days after medication” value (MCAO rats [7]; 10 mg/kg iv qd 7 d) of the same compound?
Answer: The value was 14.29 ± 18.13%.

Question: And the “Forelimb left (%), 14 days after medication” value (MCAO rats [7]; 10 mg/kg iv qd 7 d)?
Answer: The value was 38.57 ± 28.54 %.

Question: What about the “Forelimb right (%), 7 days after medication” value (MCAO rats [7]; 10 mg/kg iv qd 7 d) of the same compound?
Answer: The value was 100 ± 0%.

Question: What about the “Forelimb right (%), 14 days after medication” value (MCAO rats [7]; 10 mg/kg iv qd 7 d) of the same compound?
Answer: The value was 100 ± 0%.

Question: What about the “Improvement rate % of cerebral infarction range” value (shortened to “Improvement rate %”) (MCAO rats [8]; 5 mg/kg iv qd 7 d) of the same compound?
Answer: The value was 46.5%.

Question: What about the “Infarct size (%)” value (MCAO rats [8]; 5 mg/kg iv qd 7 d) of the same compound?
Answer: Its value is 13.13 ± 4.12 %.

Question: What about the “Improvement rate %” value (MCAO rats [8]; 10 mg/kg iv qd 7 d) of the same compound?
Answer: The value was 43.4%.

Question: And the “Infarct size (%)” value (MCAO rats [8]; 10 mg/kg iv qd 7 d)?
Answer: The value was 13.90 ± 4.70 %.

Question: What about the “Relevant substances before sterilization” value [3] of the same compound?
Answer: The value was “None”.

Question: And the “Conclusion (sterilization stability)” value [3]?
Answer: Its value is “No changes, stable”.

Question: What about the “Relevant substances after sterilization” value [3] of the same compound?
Answer: Its value is “no impurities were found and no impurities are produced and None”.

Question: Which “behavioral scores compared with the model control group” value (MCAO rats [9]) does the source give for Yukinafil citrate here?
Answer: Its value is “trend of improvement”.

Question: And the “Improvement rate %” value (MCAO rats [10]; versus model control group)?
Answer: The value was 13.1%.

Question: What about the “Total cerebral infarction %” value (MCAO rats [10]; x ± s, n = 20) of the same compound?
Answer: The value was 21.2 ± 6.3%.

Question: What about the “solubility in DMF or DMSO (in words)” value ([11]; DMF or DMSO) of the same compound?
Answer: Its value is “soluble”.

Question: What about the “solubility in water (in words)” value ([11]; water) of the same compound?
Answer: Its value is “soluble”.
